Laboratory results published in patent US8524690B2, “DNA polymerase inhibitors composition and methods” (The Trustees of the University of Pennsylvania, priority 2007, dated 2013).

Assays:
[1] = cited from earlier work
hair of the beard area = test: Topical 3% cidofovir ointment applied once a day to beard area of a patient: alopecia and local tolerability; type: in vivo, human
Description: A 3% topical ointment of cidofovir was prepared by mixing 3 g of cidofovir in 97 g of petrolatum.
(§1) A 3% topical preparation of cidofovir was applied to the beard area of a patient. The formulation was applied by the patient once a day to the affected areas of the face for the treatment of verruca vulgaris (warts). […] After 4-8 weeks the patient had alopecia in the areas of the face where the medication was applied. This was the only hair bearing area that the patient applied the medication to. The warts resolved in approximately 2-3 months.
The hair cycle time of the face is the shortest on the body. At any one point in time, up to 80% of the hair on the face (i.e. the beard area) is in the active growth phase.

verruca vulgaris (warts) = test: Topical 3% cidofovir applied to the face for treatment of verruca vulgaris (warts); type: in vivo, human; conditions: 3% topical ointment, once a day, one patient
Description: as §1, with “A 3% topical ointment of cidofovir was prepared by mixing 3 g of cidofovir in 97 g of petrolatum. A 3%” for “A 3%”

SMILES	oral bioavailability [1]	time until alopecia in the areas of the face where the medication was applied (hair of the beard area; 3% topical ointment in petrolatum, once a day, beard area, one patient)	local reaction to application (hair of the beard area; 3% topical ointment, once a day, face, application discontinued for several days then resumed)	hair regrowth upon discontinuation of topical cidofovir (hair of the beard area; after stopping 3% topical cidofovir, beard area)	time until warts resolved (verruca vulgaris (warts))
Nc1nc2c(ncn2COCCO)c(=O)[nH]1 [Acyclovir]	low oral bioavailability				
Nc1ccn(C[C@@H](CO)OCP(=O)(O)O)c(=O)n1 [cidofovir, (S)-1-[3-hydroxy-2-(phosphonylmethoxy)propyl]cytosine]		4-8 weeks	mild inflammation	the hair grew back	2-3 months
